Assay results taken from US8901118B2, “Compounds and methods for kinase modulation, and indications therefor” (Plexxikon Inc., priority 2010, dated 2014).

Experiments:
[1] = Relative solubility by turbidity in aqueous buffers (pH 1.5, 4.5, 6.8, 7.4); format: physicochemical; conditions: for turbidity threshold (L, M, H) 1.4: pH 1.5 (SGF); for turbidity threshold (L, M, H) 4.5: pH 4.5 (SIF); for turbidity threshold (L, M, H) 6.8: pH 6.8 (SIF); for turbidity threshold (L, M, H) 7.4: pH 7.4 (HEPES)
How it was run: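 Reported value: concentration at which optical density at 490, 535 and 650 nm passes 0.01, taken as the mean of the three wavelengths. Buffers were 0.5M NaCl pH 1.5, 0.05M NaH2PO4 pH 4.5 or 6.8, and 10 mM HEPES/150 mM NaCl pH 7.4, each receiving serial 1:1 DMSO dilutions of a 25 mM stock.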

[2] = test system: MV-4-11 cells; test: MV-4-11 (leukemia) cell proliferation assay (ATPlite); format: cell-based; conditions: Homo sapiens, MV4-11, read-out: Inhibition of Cell Proliferation IC50, MV-4-11
How it was run: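 Proliferation was run for 3 days at 37 °C against 8-point 1:3 titrations with 10 μM as the top final concentration. Seeding was 10,000 cells/well for BaF3 BCR-fusion lines, grown without IL-3, and 25,000 cells/well for MV-4-11. IC50 was derived from ATPlite luminescence read as cell number.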

Row | SMILES | turbidity threshold (L, M, H) 1.4 [1] | turbidity threshold (L, M, H) 4.5 [1] | turbidity threshold (L, M, H) 6.8 [1] | turbidity threshold (L, M, H) 7.4 [1] | IC50 [2] [nM]
1 | CCn1cc(Nc2ccc(Cc3c[nH]c4ncnc(C)c34)c(F)n2)cn1 [Compound P-4013, (1-Ethyl-1H-pyrazol-4-yl)-[6-fluoro-5-(4-methyl-7H-pyrrolo[2,3-d]pyrimidin-5-ylmethyl)-pyridin-2-yl]-amine] | H (high solubility if the threshold concentration is >250 μm) | M (moderate solubility if the threshold concentration is 31.3 μM to 250 μM) | M (moderate solubility if the threshold concentration is 31.3 μM to 250 μM) | M (moderate solubility if the threshold concentration is 31.3 μM to 250 μM) | < 1000
2 | CCn1cc(Nc2ccc(Cc3c[nH]c4ncnc(OCCOC)c34)c(F)n2)cn1 [Compound P-4014, (1-Ethyl-1H-pyrazol-4-yl)-{6-fluoro-5-[4-(2-methoxy-ethoxy)-7H-pyrrolo[2,3-d]pyrimidin-5-ylmethyl]-pyridin-2-yl}-amine] | M (moderate solubility if the threshold concentration is 31.3 μM to 250 μM) | M (moderate solubility if the threshold concentration is 31.3 μM to 250 μM) | M (moderate solubility if the threshold concentration is 31.3 μM to 250 μM) | M (moderate solubility if the threshold concentration is 31.3 μM to 250 μM) | < 1000
3 | COCCOc1ncnc2[nH]cc(Cc3ccc(Nc4ccc(C)nc4)nc3F)c12 [Compound P-4015, {6-Fluoro-5-[4-(2-methoxy-ethoxy)-7H-pyrrolo[2,3-d]pyrimidin-5-ylmethyl]-pyridin-2-yl}-(6-methyl-pyridin-3-yl)-amine] | M (moderate solubility if the threshold concentration is 31.3 μM to 250 μM) | M (moderate solubility if the threshold concentration is 31.3 μM to 250 μM) | M (moderate solubility if the threshold concentration is 31.3 μM to 250 μM) | M (moderate solubility if the threshold concentration is 31.3 μM to 250 μM) | < 1000
4 | CCc1ccc(Nc2ccc(Cc3c[nH]c4ncnc(OCCOC)c34)c(F)n2)cn1 [Compound P-4016, (6-Ethyl-pyridin-3-yl)-{6-fluoro-5-[4-(2-methoxy-ethoxy)-7H-pyrrolo[2,3-d]pyrimidin-5-ylmethyl]-pyridin-2-yl}-amine] | M (moderate solubility if the threshold concentration is 31.3 μM to 250 μM) | H (high solubility if the threshold concentration is >250 μm) | M (moderate solubility if the threshold concentration is 31.3 μM to 250 μM) | M (moderate solubility if the threshold concentration is 31.3 μM to 250 μM) | < 100
5 | CCOc1ncnc2[nH]cc(Cc3ccc(Nc4ccc(C)nc4)nc3F)c12 [Compound P-4017, [5-(4-Ethoxy-7H-pyrrolo[2,3-d]pyrimidin-5-ylmethyl)-6-fluoro-pyridin-2-yl]-(6-methyl-pyridin-3-yl)-amine] | M (moderate solubility if the threshold concentration is 31.3 μM to 250 μM) | M (moderate solubility if the threshold concentration is 31.3 μM to 250 μM) | M (moderate solubility if the threshold concentration is 31.3 μM to 250 μM) | L (low solubility if the threshold concentration is <31.3 μM) | < 1000
6 | CCOc1ncnc2[nH]cc(Cc3ccc(Nc4ccc(OC)nc4)nc3F)c12 [Compound P-4018, [5-(4-Ethoxy-7H-pyrrolo[2,3-d]pyrimidin-5-ylmethyl)-6-fluoro-pyridin-2-yl]-(6-methoxy-pyridin-3-yl)-amine] | M (moderate solubility if the threshold concentration is 31.3 μM to 250 μM) | L (low solubility if the threshold concentration is <31.3 μM) | L (low solubility if the threshold concentration is <31.3 μM) | L (low solubility if the threshold concentration is <31.3 μM) | < 1000
7 | COCCOc1ncnc2[nH]cc(Cc3ccc(Nc4ccc(OC)nc4)nc3F)c12 [Compound P-4019, {6-Fluoro-5-[4-(2-methoxy-ethoxy)-7H-pyrrolo[2,3-d]pyrimidin-5-ylmethyl]-pyridin-2-yl}-(6-methoxy-pyridin-3-yl)-amine] | M (moderate solubility if the threshold concentration is 31.3 μM to 250 μM) | L (low solubility if the threshold concentration is <31.3 μM) | L (low solubility if the threshold concentration is <31.3 μM) | L (low solubility if the threshold concentration is <31.3 μM) | < 1000
